Results as given in patent publication US20260234164A1, “BIPHENYL COMPOUND AS IMMUNOMODULATOR, PREPARATION METHOD THEREFOR AND USE THEREOF” (SHENZHEN CHIPSCREEN BIOSCIENCES CO., LTD., priority 2021, published 2026).

These compounds were tested on PD-1/PD-L1-mediated T cell activation inhibitory signal (assay: CHO-PD-L1-CD3L / Jurkat-PD-1-NFAT co-culture luciferase reporter assay). Details: Homo sapiens, co-culture 6 h, read-out: EC50 blocking PD-1/PD-L1-mediated T cell activation inhibitory signal.
Assay type: cell-based
Experimental: In order to detect the effect of the interaction between PD-1 and PD-L1 on T cell activation signals in the immune response, CHO-PD-L1-CD3L cells stably expressing human PD-L1 molecules and anti-CD3 single-chain antibody (ScFv) and Jurkat-PD-1-NFAT cells stably expressing human PD-1 molecule and NFAT reporter gene were constructed. When the two kinds of cells were co-incubated, the binding of anti-CD3ScFv on the surface of CHO cells and the membrane CD3 molecules of Jurkat cells would transmit an activation signal to Jurkat cells, but simultaneously, the binding of PD-L1 on the surface of CHO cells and PD-1 molecules on the surface of Jurkat cells would transmit an inhibitory signal inward to prevent expression of the luciferase reporter gene. When immune checkpoint antibodies or small molecule inhibitors were added, the binding of PD-1 and PD-L1 was blocked, the NFAT pathway activated by T cell activation signal mediated by cross-linking of CD3ScFv antibody and CD3 was no longer affected by the inhibitory signal, and the downstream luciferase reporter gene started to be expressed. A chemiluminescent signal proportional to reporter gene activation was detected by adding a catalytic substrate.
CHO-PD-L1-CD3L cells expressing human PD-L1 molecule and anti-CD3 single-chain antibody (ScFv) and Jurkat-PD-1-NFAT cells stably expressing human PD-1 molecule and NFAT reporter gene were independently constructed and provided by Dr. Chen Bo (KeyMed Bioscience (Chengdu) Co., Ltd.). Puromycin (Cat #540411) and Hygromycin B (Cat #V900372) for stable culture of transfected cells were purchased from Sigma, PMA (Cat #P1585) was purchased from Sigma, anti-human PD-L1 antibody (Cat #GMP-A066) was purchased from Novoprotein Company. Luciferase substrate solution (Cat #E6485) and luciferase-specific cell lysis solution 5× (Cat #E1531) were purchased from Promega. Fluorescence detection instrument Tecan (Spark 10M) was purchased from Switzerland Tecan Company.
(1) The day before the experiment, 100 μL of CHO-PD-L1-CD3L cells were inoculated in each well of a 96-well cell culture plate (about 4×10^4 cells/well) with a medium of DMEM/F12 containing 10% FBS, 8 μg/mL puromycin and 200 μg/mL hygromycin B, and cultured overnight at 37° C.
(2) The test compounds were diluted with 0.1% PBST into different concentration gradients, added into 96-well plates, and pre-incubated for 30 min. Jurkat-PD-1-NFAT cell count was adjusted to 2×10^5 cells/mL with the RPMI 1640 complete medium containing 10% FBS, […]8 μg/mL puromycin and 200 μg/mL hygromycin B. 100 ng/mL PMA (the stock solution was prepared with DMSO to a concentration of 10 mg/mL) was added to amplify T cell activation signal. 100 μL of the above Jurkat-PD-1-NFAT cells was added to each well of the 96-well plate for co-culture.
(3) When detecting the reaction, a control group was provided, including a solvent control without adding test compounds and a positive control with addition of anti-human PD-1 antibody as the experimental system. All detections were performed with duplicates.
(4) After continuous incubation at 37° C. for 6 h, 40 μL of 5× cell lysate was directly added, and mixed well. The plate was placed at room temperature for 10 min to completely lyse the cells. 50 μL of the lysed cell solution was transferred to a fluorescence detection plate, and added with 30 μL of luciferase substrate solution. The chemiluminescence detection program on the fluorescence detector was immediately selected for detection.
(5) The inhibition rate of T cell activation signal at the cellular level of the test compounds was calculated as follows: Inhibition rate of T cell activation signal (%)=(the original value of chemiluminescence in the detection well−solvent control)/(the highest original value of chemiluminescence detected in the compound detection well−solvent control)×100%. […]
An EC50 of 19.8 nM was found for `[2H]C([2H])([2H])OCC12CCC(CCN3CCc4c(nc(C(=O)Nc5cccc(-c6cccc(NC(=O)c7nc8c(n7C)CCN(CCC79CCC(C(=O)O)(CC7)C9)C8)c6Cl)c5F)n4C)C3)(CC1)C2` (single isomer, unassigned) [Compound I-2, 4-(2-(2-((2-chloro-2′-fluoro-3′-(5-(2-(4-((methoxy-d3)methyl)bicyclo[2.2.1]heptane-1-y 1)ethyl)-1-methyl-4,5,6,7-tetrahydro-1H-imidazo[4,5-c]pyridine-2-carboxamido)-[1,1′-biphenyl]-3-yl)carbamoyl)-1-methyl-1,4,6,7-tetrahydro-5H-imidazo[4,5-c]pyridin-5-yl)ethyl)bicyclo[2.2.1]heptane-1-carboxylic acid] in this work. An EC50 of 19.6 nM was found for `[2H]C([2H])([2H])OCC12CCC(CCN3CCc4c(nc(C(=O)Nc5cccc(-c6cccc(NC(=O)c7nc8c(n7C([2H])([2H])[2H])CCN(CCC79CCC(C(=O)O)(CC7)C9)C8)c6Cl)c5F)n4C([2H])([2H])[2H])C3)(CC1)C2` (single isomer, unassigned) [Compound I-7, 4-(2-(2-((2-chloro-2′-fluoro-3′-(5-(2-(4-((methoxy-d3)methyl)bicyclo[2.2.1]heptane-1-yl)ethyl)-1-(methyl-d3)-4,5,6,7-tetrahydro-1H-imidazo[4,5-c]pyridine-2-carboxamido)-[1,1′-biphenyl]-3-yl)carbamoyl)-1-(methyl-d3)-1,4,6,7-tetrahydro-5H-imidazo[4,5-c]pyridin-5-yl)ethyl)bicyclo[2.2.1]heptane-1-carboxylic acid] in this work. An EC50 of 45.1 nM was found for `[2H]C([2H])([2H])n1c(C(=O)Nc2cccc(-c3cccc(NC(=O)c4nc5c(n4C([2H])([2H])[2H])CCN(CCC46CCC(C(=O)O)(CC4)C6)C5)c3Cl)c2F)nc2c1CCN(CCC13CCC(COC)(CC1)C3)C2` (single isomer, unassigned) [Compound I-8, 4-(2-(2-((2-chloro-2′-fluoro-3′-(5-(2-(4-(methoxymethyl)bicyclo[2.2.1]heptane-1-yl)ethyl)-1-(methyl-d3)-4,5,6,7-tetrahydro-1H-imidazo[4,5-c]pyridine-2-carboxamido)-[1,1′-biphenyl]-3-yl)carbamoyl)-1-(methyl-d3)-1,4,6,7-tetrahydro-5H-imidazo[4,5-c]pyridin-5-yl)ethyl)bicyclo[2.2.1]heptane-1-carboxylic acid] in this work. An EC50 of 15.1 nM was found for `[2H]c1c([2H])c(NC(=O)c2nc3c(n2C)CCN(CCC24CCC(COC([2H])([2H])[2H])(CC2)C4)C3)c(F)c(-c2c([2H])c([2H])c([2H])c(NC(=O)c3nc4c(n3C)CCN(CCC35CCC(C(=O)O)(CC3)C5)C4)c2Cl)c1[2H]` (single isomer, unassigned) [Compound I-14, 4-(2-(2-((2-chloro-2′-fluoro-3′-(5-(2-(4-((methoxy-d3)methyl)bicyclo[2.2.1]heptane-1-y 1)ethyl)-1-methyl-4,5,6,7-tetrahydro-1H-imidazo[4,5-c]pyridine-2-carboxamido)-[1,1′-biphenyl]-3-yl-4,4′,5,5′,6,6′-d6)carbamoyl)-1-methyl-1,4,6,7-tetrahydro-5H-imidazo[4,5-c]pyridin-5-yl)ethyl)bicyclo[2.2.1]heptane-1-carboxylic acid] in this work. An EC50 of 13.8 nM was found for `[2H]C([2H])([2H])OCC12CCC(CCN3CCc4c(nc(C(=O)Nc5cccc(-c6cccc(NC(=O)c7nc8c(n7C)CCN(CCC79CCC(C(=O)O)(CC7)C9)C8)c6Cl)c5Cl)n4C)C3)(CC1)C2` [Compound I-1, 4-(2-(2-((2,2′-dichloro-3′-(5-(2-(4-((methoxy-d3)methyl)bicyclo[2.2.1]heptane-1-yl)ethyl)-1-methyl-4,5,6,7-tetrahydro-1H-imidazo[4,5-c]pyridine-2-carboxamido)-[1,1′-biphenyl]-3-yl)carbamoyl)-1-methyl-1,4,6,7-tetrahydro-5H-imidazo[4,5-c]pyridin-5-yl)ethyl)bicyclo[2.2.1]heptane-1-carboxylic acid] in this work. An EC50 of 10.6 nM was found for `[2H]C([2H])([2H])OCC12CCC(CCN3CCc4c(nc(C(=O)Nc5cccc(-c6cccc(NC(=O)c7nc8c(n7C)CCN(CCC79CCC(C(=O)O)(CC7)C9)C8)c6C)c5Cl)n4C)C3)(CC1)C2` [Compound I-3, 4-(2-(2-((2′-chloro-3′-(5-(2-(4-((methoxy-d3)methyl)bicyclo[2.2.1]heptane-1-yl)ethyl)-1-methyl-4,5,6,7-tetrahydro-1H-imidazo[4,5-c]pyridine-2-carboxamido)-2-methyl-[1,1′-biphenyl]-3-yl)carbamoyl)-1-methyl-1,4,6,7-tetrahydro-5H-imidazo[4,5-c]pyridin-5-yl)ethyl)bicyclo[2.2.1]heptane-1-carboxylic acid] in this work. An EC50 of 9.72 nM was found for `[2H]C([2H])([2H])OCC12CCC(CCN3CCc4c(nc(C(=O)Nc5cccc(-c6cccc(NC(=O)c7nc8c(n7C)CCN(CCC79CCC(C(=O)O)(CC7)C9)C8)c6Cl)c5C)n4C)C3)(CC1)C2` [Compound I-4, 4-(2-(2-((2-chloro-3′-(5-(2-(4-((methoxy-d3)methyl)bicyclo[2.2.1]heptane-1-yl)ethyl)-1-methyl-4,5,6,7-tetrahydro-1H-imidazo[4,5-c]pyridine-2-carboxamido)-2′-methyl-[1,1′-biphenyl]-3-yl)carbamoyl)-1-methyl-1,4,6,7-tetrahydro-5H-imidazo[4,5-c]pyridin-5-yl)ethyl)bicyclo[2.2.1]heptane-1-carboxylic acid] in this work. An EC50 of 12.5 nM was found for `[2H]C([2H])([2H])OCC12CCC(CCN3CCc4c(nc(C(=O)Nc5cccc(-c6cccc(NC(=O)c7nc8c(n7C([2H])([2H])[2H])CCN(CCC79CCC(C(=O)O)(CC7)C9)C8)c6Cl)c5Cl)n4C([2H])([2H])[2H])C3)(CC1)C2` [Compound I-5, 4-(2-(2-((2,2′-dichloro-3′-(5-(2-(4-((methoxy-d3)methyl)bicyclo[2.2.1]heptane-1-yl)ethyl)-1-(methyl-d3)-4,5,6,7-tetrahydro-1H-imidazo[4,5-c]pyridine-2-carboxamido)-[1,1′-biphenyl]-3-yl)carbamoyl)-1-(methyl-d3)-1,4,6,7-tetrahydro-5H-imidazo[4,5-c]pyridin-5-yl)ethyl)bicyclo[2.2.1]heptane-1-carboxylic acid] in this work. An EC50 of 12.5 nM was found for `[2H]C([2H])([2H])n1c(C(=O)Nc2cccc(-c3cccc(NC(=O)c4nc5c(n4C([2H])([2H])[2H])CCN(CCC46CCC(C(=O)O)(CC4)C6)C5)c3Cl)c2Cl)nc2c1CCN(CCC13CCC(COC)(CC1)C3)C2` [Compound I-6, 4-(2-(2-((2,2′-dichloro-3′-(5-(2-(4-((methoxy)methyl)bicyclo[2.2.1]heptane-1-yl)ethyl)-1-(methyl-d3)-4,5,6,7-tetrahydro-1H-imidazo[4,5-c]pyridine-2-carboxamido)-[1,1′-biphenyl]-3-yl)carbamoyl)-1-(methyl-d3)-1,4,6,7-tetrahydro-5H-imidazo[4,5-c]pyridin-5-yl)ethyl)bicyclo[2.2.1]heptane-1-carboxylic acid] in this work. An EC50 of 28.1 nM was found for `[2H]C([2H])([2H])OCC12CCC(CCN3CCc4c(nc(C(=O)Nc5cccc(-c6cccc(NC(=O)c7nc8c(n7C([2H])([2H])[2H])CCN(CCC79CCC(C(=O)O)(CC7)C9)C8)c6Cl)c5C)n4C([2H])([2H])[2H])C3)(CC1)C2` [Compound I-9, 4-(2-(2-((2-chloro-3′-(5-(2-(4-((methoxy-d3)methyl)bicyclo[2.2.1]heptane-1-yl)ethyl)-1-(methyl-d3)-4,5,6,7-tetrahydro-1H-imidazo[4,5-c]pyridine-2-carboxamido)-2′-methyl-[1,1′-biphenyl]-3-yl)carbamoyl)-1-(methyl-d3)-1,4,6,7-tetrahydro-5H-imidazo[4,5-c]pyridin-5-yl)ethyl)bicyclo[2.2.1]heptane-1-carboxylic acid] in this work.
